How the values were obtained:
in vitro = format: cell-based, human; settings: human, differentiated hl-60 cells, 300 μmol/L, about 24 hours, PMA-differentiated HL-60 cells, LDH; no-treatment 0%, cell lysis buffer 100%; read-out: cytotoxicity (%) Evaluation compound results
Outline: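 Cytotoxicity (%) from supernatant LDH activity after ~24 h treatment at 300 μmol/L final, normalised to no-treatment (0%) and lysis buffer (100%). Cells were PMA-differentiated (10 nM, ~72 h) HL-60 in 2% FBS medium; triplicate means.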

[1] = Study for confirmation of conversion to brexpiprazole in a buffer (stability of the evaluation compounds); format: physicochemical; settings: in buffer, average of duplicate; for Concentration of brexpiprazole formed: 60-minute reaction sample; for Concentration of evaluation compound decreased: decrease in 60-minute vs 0-minute reaction sample
Outline: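 Compounds (final 1 μmol/L, from 100 μmol/L working solutions) incubated in buffer at 37° C. for 0 or 60 min, in duplicate, after 3 min pre-incubation of the reaction solution. Reactions stopped with acetonitrile/isopropanol (4:1) containing internal standards; compound and formed brexpiprazole quantified against 0.01–1 μmol/L calibration samples.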

| SMILES | Concentration of brexpiprazole formed [1] [nM] | Concentration of evaluation compound decreased [1] [nM] | cytotoxicity at 24 h, 300 µM (in vitro) [%] |
| --- | --- | --- | --- |
| CC(C)(CC(=O)O)CC(=O)OCOP(=O)([O-])OC[N+]1(CCCCOc2ccc3ccc(=O)[nH]c3c2)CCN(c2cccc3sccc23)CC1 [EX 71] | 0 | 100 | -9 |
| CC(=O)Oc1ccccc1C(=O)OCOP(=O)([O-])OC[N+]1(CCCCOc2ccc3ccc(=O)[nH]c3c2)CCN(c2cccc3sccc23)CC1 [EX 80, (2-acetoxybenzoyl)oxy)methyl ((4-(benzo[b]thiophen-4-yl)-1-(4-((2-oxo-1,2-dihydroquinolin-7-yl)oxy)butyl)piperazin-1-ium-1-yl)methyl) phosphate] | 0 | 170 | 7 |
| COCCn1nc(C(=O)OCOP(=O)([O-])OC[N+]2(CCCCOc3ccc4ccc(=O)[nH]c4c3)CCN(c3cccc4sccc34)CC2)c2ccccc21 [EX 82, (4-(benzo[b]thiophen-4-yl)-1-(4-((2-oxo-1.2-dihydroquinolin-7-yl)oxy)butyl)piperazin-1-ium-1-yl)methyl (((1-(2-methoxyethyl)-1H-indazole-3-carbonyl)oxy)methyl) phosphate] | 0 | 20 | -2 |
| COC(=O)[C@H](COP(=O)([O-])OC[N+]1(CCCCOc2ccc3ccc(=O)[nH]c3c2)CCN(c2cccc3sccc23)CC1)NC(=O)OC(C)(C)C [EX 83, (S)-(4-(benzo[b]thiophen-4-yl)-1-(4-((2-oxo-1,2-dihydroquinolin-7-yl)oxy)butyl)piperazin-1-ium-1-yl)methyl (2-(tert-butoxycarbonyl)amino)-3-methoxy-3-oxopropyl) phosphate] | 0 | 70 | -5 |

Further lines, with some results ahead:

| Concentration of brexpiprazole formed [1] [nM] | Concentration of evaluation compound decreased [1] [nM] | SMILES | cytotoxicity at 24 h, 300 µM (in vitro) [%] |
| --- | --- | --- | --- |
| 0 | 50 | CC1(C)OCC(NC(=O)CCCC(=O)OCOP(=O)([O-])OC[N+]2(CCCCOc3ccc4ccc(=O)[nH]c4c3)CCN(c3cccc4sccc34)CC2)CO1 [EX 74, (4-(benzo[b]thiophen-4-yl)-1-(4-((2-oxo-1,2-dihydroquinolin-7-yl)oxy)butyl)piperazin-1-ium-1-yl)methyl (((5-((2.2-dimethyl-1,3-dioxan-5-yl)amino)-5-oxopentanoyl)oxy)methyl) phosphate] | -1 |
| 0 | 110 | COCCOC(=O)CCCCCCCCCCC(=O)OCOP(=O)([O-])OC[N+]1(CCCCOc2ccc3ccc(=O)[nH]c3c2)CCN(c2cccc3sccc23)CC1 [EX 77, (4-(benzo[b]thiophen-4-yl)-1-(4-((2-oxo-1,2-dihydroquinolin-7-yl)oxy)butyl)piperazin-1-ium-1-yl)methyl (((12-(2-methoxyethoxy)-12-oxododecanoyl)oxy)methyl) phosphate] | 6 |
| 0 | -30 | Cc1ncccc1C(=O)OCOP(=O)([O-])OC[N+]1(CCCCOc2ccc3ccc(=O)[nH]c3c2)CCN(c2cccc3sccc23)CC1 [EX 81, (4-(benzo[b]thiophen-4-yl)-1-(4-(2-oxo-1,2-dihydroquinolin-7-yl)oxy)butyl)piperazin-1-ium-1-yl)methyl (((2-methylnicotinoyl)oxy)methyl) phosphate] | 8 |
| 0 | 10 | O=c1ccc2ccc(OCCCC[N+]3(COP(=O)([O-])OCCCOc4ccccc4)CCN(c4cccc5sccc45)CC3)cc2[nH]1 [EX 84, 4-(benzo[b]thiophen-4-yl)-1-(4-((2-oxo-1,2-dihydroquinolin-7-yl)oxy)butyl)piperazin-1-ium-1-yl)methyl (3-phenoxypropyl) phosphate] | 1 |

From patent US20260285888A1, “HETEROCYCLIC COMPOUND AND USE THEREOF” (OTSUKA PHARMACEUTICAL CO., LTD., priority 2023, published 2026)
